# Reference: PMC5493638, “Adiponectin is an endogenous anti-fibrotic mediator and therapeutic target” (Scientific Reports, 2017)
# Residues, ends and D or L forms follow the SMILES beside them.
# B1: adiponectin: 30 kDa secreted adipokine abundant in the circulation (protein, UniProt Q15848 19-244, looked up)
# Adiponectin: ETTTQGPGVLLPLPKGACTGWMAGIPGHPGHNGAPGRDGRDGTPGEKGEKGDPGLIGPKGDIGETGVPGAEGPRGFPGIQGRKGEPGEGAYVYRSAFSVGLETYVTIPNMPIRFTKIFYNQQNHYDGSTGKFHCNIPGLYYFAYHITVYMKDVKVSLFKKDKAMLFTYDQYQENNVDQASGSVLLHLEVGDQVWLQVYGEGERNGLYADNDNDSTFTGFLLYHDTN
# What was measured:
# C57BL6/J mice = experiment: Bleomycin-induced skin fibrosis in mice; assay type: in vivo, mouse
# Excerpt: (§1) Bleomycin (BLM) or phosphate buffered saline (PBS) was given by daily subcutaneous (s.c.) injection for 14 consecutive days[55]. In some experiments, mice were given a single s.c. injection of adenovirus expressing constitutively-active TGF-ß1 (TGFß1^223/225 3x10^9 PFU/ml) or beta-galactosidase (5x10^9 PFU/ml)[56]. Peritoneal fibrosis was induced by i.p. injections of 0.1% chlorhexidine gluconate (CG; Wako Pure Chemical Industries, Osaka, Japan) dissolved in 15% ethanol/PBS given on alternate days for 21 days[35]. Synthetic peptides targeting AdipoR (ADP355 or ADP27)[37] or vehicle (PBS) at the indicated concentrations were administered by daily i.p. injection for 14 or 24 days. Each experimental group consisted of 4–8 mice, and experiments were repeated at least two times with consistent results. At the end of the experiments, mice were sacrificed and blood and tissue were collected for analysis.
# Harvested skin or parietal peritoneal membrane samples were fixed in PFA, embedded in paraffin and 4 μm thick sections were stained with hematoxylin and eosin (H&E). Collagen deposition and organization were assessed using Masson’s Trichrome staining. Thickness of the dermis, dWAT or peritoneal membrane were determined at five randomly selected locations/slide using ImageJ software.
# Collagen content of lesional skin was determined by measuring the hydroxyproline content in 6-mm punch biopsy samples (BioVision, Milpitas, CA) (16). Serum levels of adiponectin were determined by ELISA which measures all adiponectin isoforms (Millipore; #EZMADP-60K)[9].
# (§2) RNA was isolated from skin samples using RNAeasy Fibrous Tissue Mini kit (Qiagen, Valencia, CA), or from fibroblast cultures, using the RNeasy Plus mini kit (Qiagen), and processed for qPCR as described. mRNA levels were normalized to the levels of 18 S RNA or GAPDH, and the relative amounts were calculated using the 2^−ΔΔCt method.
# [1] = system: AMP-activated protein kinase (AMPK); conditions: cited from earlier work
# Excerpt: (§3) An alternate potential strategy is to mimic adiponectin biological activity using small molecules.
# [2] = system: normal dermal fibroblasts; experiment: TGF-ß-induced fibrotic gene expression in skin fibroblasts (qPCR, Western blot); assay type: cell-based, human
# Excerpt: (§4) Primary cultures of healthy adult and SSc skin fibroblasts, and neonatal fibroblasts, were established by explantation. The clinical features of the subjects are shown in Supplementary Table 5. Protocols for skin biopsies were approved by the Institutional Review Board at Northwestern University. Embryonic fibroblasts from AMP protein kinase (AMPK)^−/− mice and wild-type mice were a gift from Yu-Ying He (University of Chicago). When cultures reached confluence, serum-free media supplemented with 0.1% bovine serum albumin (BSA) were added prior to TGF-β2 (Peprotech, Rocky Hill, NJ) or/and ADP355 (10 μM)[37], and incubation continued for a further 24 h. Cytotoxicity was evaluated using LDH assays (Biovision).
# as §2
# At the end of the experiments, fibroblasts were harvested and whole cell lysates (100 μg) were subjected to Western-blot analysis[25] using antibodies for Type I collagen (Southern Biotech), α-SMA (Sigma), phospho-Smad2/3 (Cell-Signaling), phospho-FAK (pY397, Cell Signaling), total-FAK (Cell Signaling) or GAPDH (Zymed, San Francisco, CA). […]
# skin fibroblasts [3] = experiment: Cytotoxicity, LDH assay; assay type: cell-based, human; conditions: concentrations of ADP355 used for these experiments (10 μM)
# Excerpt: as §4
# skin fibroblasts [4] = experiment: In vitro competition binding with labeled peptides; set-up: species or system human; conditions: unlabeled ADP355 100 μg/ml 10 min, then ADP355-Dy675 5 μg/ml 30 min, confocal microscopy
# Experimental: To evaluate in vitro peptide binding, skin fibroblasts seeded on coverslips were preincubated with unlabeled ADP355 (100 μg/ml) for 10 min, followed by labeled ADP355-Dy675 (5 μg/ml), or labeled control peptide (Api88 Dy675, gift from Daniel Knappe, Leipzig, Germany) for 30 min. Cells were fixed in 4% phosphate buffered paraformaldehyde (PFA) and visualized using a Nikon A1 confocal microscope. To evaluate in vivo biodistribution, C57BL6/J mice were injected i.p. with Dy675-coupled peptide (20 μg/mouse or […]) and 10 min later, dorsal skin was harvested and processed for immunofluorescence analysis.
# [5] = system: [SBE]4-luc (canonical Smad pathway); experiment: [SBE]4-luc transient transfection reporter assay; assay type: cell-based, human; conditions: transiently transfected fibroblasts, ADP355 and TGF-β 24 h, luciferase
# Experimental: Fibroblasts at early confluence were transfected with [SBE]4-luc plasmids or indicated reporter constructs using SuperFect Transfection (Qiagen)[61]. Cultures were incubated in serum-free media containing 0.1% BSA for 16 h, followed by ADP355 and TGF-β for a further 24 h[61]. Whole cell lysates were assayed for luciferase activities using the dual-luciferase reporter assay system (Promega, Madison, WI). In each experiment, Renilla luciferase pRL-TK (Promega) was cotransfected as control for transfection efficiency. Experiments were performed in triplicate and repeated at least twice with consistent results. For RNAi-mediated transcript silencing, fibroblasts were transfected with target-specific short interfering siRNA specific for AdipoR1/R2 (Dharmacon, Lafayette, CO) or scrambled control siRNA (10 nM, unless otherwise indicated). Twenty-four hours following transfection, fresh media containing TGF-β (2 ng/ml) or ADP355 (10 μM) were added to the cultures and incubation continued for a further 24 h.
# phospho-Smad2/3 = experiment: Smad2/3 phosphorylation elicited by TGF-ß (Western); assay type: cell-based, human; conditions: fibroblasts treated with ADP355
# Experimental: (§5) At the end of the experiments, fibroblasts were harvested and whole cell lysates (100 μg) were subjected to Western-blot analysis[25] using antibodies for Type I collagen (Southern Biotech), α-SMA (Sigma), phospho-Smad2/3 (Cell-Signaling), phospho-FAK (pY397, Cell Signaling), total-FAK (Cell Signaling) or GAPDH (Zymed, San Francisco, CA). Electrophoretic bands were detected using enhanced chemiluminescence reagents (Pierce Biotechnology, Rockford, IL), and band intensities were quantified with Image J software. Results were normalized with GAPDH levels in each sample.
# [6] = system: normal dermal fibroblasts; experiment: Scratch assay of fibroblast migration; assay type: cell-based, human; conditions: widths after 48 h
# Experimental: Figure 4 ADP355 inhibits fibrotic responses in normal and SSc skin fibroblasts. (a–d). Confluent cultures of normal dermal fibroblasts were preincubated with ADP355, followed by TGF-β2 for 24 h. (a) Total RNA was subjected to real-time qPCR. Results are mean ± SD of triplicate determinations. *p < 0.05, **p < 0.01. (b) Western blot of whole cell lysates. Representative results. Fold change in Type I collagen (Cgn I) levels relative to control is shown at bottom. (c) Fibroblasts were transiently transfected with [SBE]4-luc reporter plasmids, and cell lysates were assayed for their luciferase activities. Results are mean ± SD of triplicate determinations. **p < 0.001 (d) Scratch assays were performed and the widths determined after 48 h. Results are mean ± SEM of triplicate determinations at three randomly selected sites. (e) 3D human skin equivalents populated with normal fibroblasts were incubated in media with ADP355 and TGF-β2 for 6 days. RNA was isolated for qPCR. Results are mean ± SD of triplicate determinations *p < 0.05, **p < 0.001. (f) SSc skin fibroblasts (n = 5) incubated with ADP355 for 24 h were immunostained with antibodies to αSMA (green) or type I collagen (Cgn1, red), or stained with DAPI (blue). Left panels, representative immunofluorescence photomicrographs (original magnification × 400). Right panels, immunofluorescence intensity. […]
# [7] = system: 3D human skin equivalents populated with normal skin fibroblasts; experiment: 3D human skin equivalents, fibrotic responses (qPCR); assay type: cell-based; conditions: peptide 10 uM with TGF-β2 for 6 days
# Experimental: Normal human skin fibroblasts (3 × 10^5cells) were mixed with rat tail Type I collagen (4 mg/ml, BD Biosciences, San Jose, CA) and seeded in 12-well plates, [60]. Epidermal keratinocytes (6 × 10^6 cells) were seeded on the collagen plugs. Forty-eight hours later, the 3D organotypic cultures were placed on metal grids (BD Biosciences) and maintained for 5 days at an air-medium interface. Peptides (10 uM) were then added in media with or without TGF-β, and incubations continued for a further six days. Experiments were harvested, and RNA was isolated for analysis.
# as §2
# SSc skin fibroblasts = experiment: Constitutive fibrotic gene expression in SSc fibroblasts; assay type: cell-based, human; conditions: unstimulated SSc fibroblasts (n = 5), ADP355 24 h, αSMA and type I collagen immunofluorescence
# Experimental: (§6) Normal skin fibroblasts (10,000 cells/well) seeded in 8-well Lab-Tek II chamber glass slides (Nalge Nunc International, Naperville, IL) were incubated in media with indicated reagents. At the end of the experiments, cells were fixed, permeabilized, and incubated with primary antibodies to α-SMA (1:500, Sigma), phospho-FAK (pY397; 1:50, Abcam), vinculin (1:200, Abcam), Alexa Fluor 488 phalloidin (1:200, Invitrogen) or Type I collagen (1:100, Southern Biotech), followed by appropriate secondary antibodies conjugated to Alexa Fluor (Invitrogen), and evaluated under a Nikon C1Si confocal microscope.
# as §4
# [8] = system: phospho-AMP kinase (Thr172); experiment: AMPK phosphorylation in normal fibroblasts (immunofluorescence); assay type: cell-based, human; conditions: ADP355 60 min, confocal immunofluorescence
# AMPK-null MEFs = experiment: Anti-fibrotic activity in AMPK-null MEFs (qPCR); assay type: cell-based; conditions: mouse embryonic fibroblasts, ADP355 24 h
# Excerpt: as §4, §2
# p-FAK Y397 = experiment: FAK phosphorylation and focal adhesion complex assembly; assay type: cell-based, human; conditions: normal skin fibroblasts, pretreatment with ADP355
# Experimental: as §6, §5
# [9] = Ex vivo stability in serum; assay type: in vitro ADME; conditions: 30 min incubation with serum, intact peptide, data not shown
# [10] = Tolerability of chronic treatment in mice; assay type: in vivo, mouse; conditions: 1 mg/kg/d i.p. for up to 28 days
# Excerpt: as §1
# [11] = cited from earlier work
# Excerpt: as §3
# [12] = system: AdipoR-positive cancer cell lines; conditions: cited from earlier work
# Excerpt: as §3
# AdipoR = conditions: screening of 66 overlapping 10-amino acid peptides of the globular domain of adiponectin; cited from earlier work
# Excerpt: as §3
# [13] = daily i.p. ADP355 initiated concurrently with BLM
molecule,measurement,setting,value
"H-LYYFAYHITV-NH2 [ADP27, H-Leu-Tyr-Tyr-Phe-Ala-Tyr-His-Ile-Thr-Val-NH2]",anti-fibrotic effects in mice compared with ADP355,"C57BL6/J mice; mice treated with ADP27, Supplementary Fig. 9a,b",Comparable anti-fibrotic effects
c1cc(-c2cnn3cc(-c4ccc(OCCN5CCCCC5)cc4)cnc23)ccn1 [Compound C],effect on or relative to the anti-fibrotic activities of adiponectin,[1],blocked
"CCC[C@H](NC(=O)[C@@H]1CCCN1C(=O)[C@@H](NC(=O)[C@H](N)CC(N)=O)[C@@H](C)CC)C(=O)N[C@@H](CC(C)C)C(=O)N[C@@H](Cc1ccc(O)cc1)C(=O)N[C@H](CO)C(=O)N[C@@H](Cc1ccccc1)C(=O)N[C@@H](C)C(=O)N[C@H](CO)C(N)=O [ADP355, H-DAsn-Ile-Pro-Nva-Leu-Tyr-DSer-Phe-Ala-DSer-NH2] (HELM PEPTIDE1{[dN].I.P.[Nva].L.Y.[dS].F.A.[dS].[am]}$$$$V2.0)",inhibitory effects on fibrotic gene expression,"[2]; adult skin fibroblasts, data not shown",Comparable inhibitory effects
same,"COL1A1, COL1A2, ASMA, and fibronectin (FN) gene expression induced by TGF-ß","[2]; neonatal skin fibroblasts, ADP355 10 μM preincubation then TGF-β2 24 h, qPCR and Western blot",potent abrogation
same,cell viability,skin fibroblasts [3],No effects on cell viability
same,binding to fibroblasts,skin fibroblasts [4],Specific binding
same,stimulation of [SBE]4-luc activity by TGF-ß,[5],abrogated
same,Smad2/3 phosphorylation elicited by TGF-ß,phospho-Smad2/3,partially reduced
same,stimulation of fibroblast migration,[6],abrogated the stimulation of fibroblast migration
same,fibrotic responses in 3D human skin equivalents,[7],attenuated fibrotic responses
same,constitutive fibrotic gene expression,SSc skin fibroblasts,mitigated constitutive fibrotic gene expression
same,AMPK phosphorylation,[8],induced AMPK phosphorylation
same,anti-fibrotic activity in AMPK-null MEFs,AMPK-null MEFs,failed to exert anti-fibrotic activity
same,FAK activation and focal adhesion complex assembly augmented by TGF-ß,p-FAK Y397,substantially attenuated
same,ex vivo stability in serum,[9],"excellent ex vivo stability, with detectable levels of intact peptide even after 30 min incubation with serum"
same,tolerability of chronic treatment,[10],"well tolerated, with no signs of toxicity"
same,"skin fibrosis, low dose","C57BL6/J mice; 0.2 mg/kg/d, multiple independent experiments",Significant attenuation
same,"skin fibrosis, high dose","C57BL6/J mice; 1 mg/kg/d, multiple independent experiments",Significant attenuation
same,"dermal thickness, peptide by itself","C57BL6/J mice; ADP355 alone, without BLM",no significant effect
same,BLM-induced collagen accumulation,C57BL6/J mice; [13],significantly mitigated
same,BLM-induced dWAT attrition,C57BL6/J mice; [13],significantly mitigated
same,BLM-induced increase in dermal thickness,"C57BL6/J mice; daily i.p. ADP355 initiated concurrently with BLM (s.c. 14 d), continued for 21 d",significantly mitigated
same,BLM-induced fibrotic gene expression,"C57BL6/J mice; daily i.p. ADP355 initiated concurrently with BLM, qPCR of lesional skin",significantly mitigated
same,established dermal fibrosis,"C57BL6/J mice; treatment initiated at day 10 of BLM, data not shown",reversed established dermal fibrosis
same,hypoadiponectinemia and loss of subcutaneous adipose tissue induced by HIV protease inhibitors,[11],reverse
same,anti-tumor effects,[12],anti-tumor effects
same,AdipoR agonist activity,AdipoR,potent AdipoR agonist
NC(=O)c1ncn([C@@H]2O[C@H](CO)[C@@H](O)[C@H]2O)c1N [AICAR],effect on or relative to the anti-fibrotic activities of adiponectin,[1],mimicked
B1,half-life,[11],relatively short half-life
same,solubility,[11],extreme insolubility
